Measured values: PubChem BioAssay (NCI)
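The compound was tested at five concentrations on cells cultured in 96-well plates, with a 48-hour exposure period. TGI: concentration producing complete growth inhibition.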

Key:
Test in all cases: inhibition of tumour cell growth, NCI panel, 48 h
786-0 renal = tested on: 786-0 renal
A498 renal = tested on: A498 renal
A549 NSCLC = tested on: A549 NSCLC
ACHN renal = tested on: ACHN renal
CAKI-1 renal = tested on: CAKI-1 renal
CCRF-CEM leukemia = tested on: CCRF-CEM leukemia
COLO 205 colon = tested on: COLO 205 colon
DLD-1 colon = tested on: DLD-1 colon
DMS 273 small cell lung = tested on: DMS 273 small cell lung
EKVX NSCLC = tested on: EKVX NSCLC
HCC-2998 colon = tested on: HCC-2998 colon
HCT-116 colon = tested on: HCT-116 colon
HCT-15 colon = tested on: HCT-15 colon
HL-60(TB) leukemia = tested on: HL-60(TB) leukemia
HOP-18 NSCLC = tested on: HOP-18 NSCLC
HOP-62 NSCLC = tested on: HOP-62 NSCLC
HOP-92 NSCLC = tested on: HOP-92 NSCLC
HT29 colon = tested on: HT29 colon
IGROV1 ovarian = tested on: IGROV1 ovarian
K-562 leukemia = tested on: K-562 leukemia
KM12 colon = tested on: KM12 colon
KM20L2 colon = tested on: KM20L2 colon
LOX IMVI melanoma = tested on: LOX IMVI melanoma
LXFL 529 NSCLC = tested on: LXFL 529 NSCLC
M14 melanoma = tested on: M14 melanoma
M19-MEL melanoma = tested on: M19-MEL melanoma
MALME-3M melanoma = tested on: MALME-3M melanoma
MOLT-4 leukemia = tested on: MOLT-4 leukemia
NCI-H23 lung = tested on: NCI-H23 lung
NCI-H460 lung = tested on: NCI-H460 lung
OVCAR-3 ovarian = tested on: OVCAR-3 ovarian
OVCAR-4 ovarian = tested on: OVCAR-4 ovarian
OVCAR-5 ovarian = tested on: OVCAR-5 ovarian
OVCAR-8 ovarian = tested on: OVCAR-8 ovarian
RPMI-8226 leukemia = tested on: RPMI-8226 leukemia
RXF 393 renal = tested on: RXF 393 renal
RXF-631 renal = tested on: RXF-631 renal
SF-268 CNS = tested on: SF-268 CNS
SF-295 CNS = tested on: SF-295 CNS
SF-539 CNS = tested on: SF-539 CNS
SK-MEL-2 melanoma = tested on: SK-MEL-2 melanoma
SK-MEL-5 melanoma = tested on: SK-MEL-5 melanoma
SK-OV-3 ovarian = tested on: SK-OV-3 ovarian
SN12C renal = tested on: SN12C renal
SNB-19 CNS = tested on: SNB-19 CNS
SNB-75 CNS = tested on: SNB-75 CNS
SNB-78 CNS = tested on: SNB-78 CNS
SW-620 colon = tested on: SW-620 colon
TK-10 renal = tested on: TK-10 renal
U251 CNS = tested on: U251 CNS
UACC-257 melanoma = tested on: UACC-257 melanoma
UACC-62 melanoma = tested on: UACC-62 melanoma
UO-31 renal = tested on: UO-31 renal
XF 498 CNS = tested on: XF 498 CNS
DMS 114 small cell lung = tested on: DMS 114 small cell lung
NCI-H226 lung = tested on: NCI-H226 lung
SK-MEL-28 melanoma = tested on: SK-MEL-28 melanoma
SR leukemia = tested on: SR leukemia
NCI-H522 lung = tested on: NCI-H522 lung

Measured: TGI

c1ccc2c(c1)CCC/C2=N\OCC1CO1 (stereo unspecified)
92.1 µM: HL-60(TB) leukemia
98.9 µM: RXF 393 renal
not listed: DMS 114 small cell lung | NCI-H226 lung | SK-MEL-28 melanoma | SR leukemia | NCI-H522 lung
> 100 µM: all other assays above

Cc1c(NC(=O)C(C)(C)Br)c(=O)oc2c(C)c3occc(=O)c3cc12
66.3 µM: A498 renal
98.6 µM: XF 498 CNS
71.9 µM: NCI-H226 lung
76.2 µM: UO-31 renal
not listed: CAKI-1 renal | HOP-18 NSCLC | HOP-92 NSCLC | KM12 colon | M19-MEL melanoma | OVCAR-5 ovarian | SK-OV-3 ovarian | SNB-78 CNS | NCI-H522 lung
> 100 µM: all other assays above

O=C1c2ccccc2-c2cccc3ccc(Cc4ccc5ccccc5c4)c1c23
not listed: A498 renal | CAKI-1 renal | HOP-18 NSCLC | LOX IMVI melanoma | LXFL 529 NSCLC | SK-OV-3 ovarian | DMS 114 small cell lung | NCI-H226 lung | SR leukemia
> 100 µM: all other assays above

COC(=O)C1C(C(=O)OC)C2(OC)c3ccccc3-c3ccccc3C12 (stereo unspecified)
87.9 µM: DMS 114 small cell lung | KM20L2 colon
43 µM: DMS 273 small cell lung
25.3 µM: HL-60(TB) leukemia
88.8 µM: NCI-H522 lung
76.9 µM: K-562 leukemia
31.3 µM: COLO 205 colon
43.6 µM: MOLT-4 leukemia
71.8 µM: RPMI-8226 leukemia
54.5 µM: SK-MEL-2 melanoma
64.3 µM: CCRF-CEM leukemia
42 µM: SR leukemia
78.7 µM: SK-MEL-5 melanoma
not listed: SNB-78 CNS | XF 498 CNS
> 100 µM: all other assays above
